According to patent US9376380B2 (University of Pittsburgh—Of the Commonwealth System of …, priority 2011, dated 2016):
Like-named read-outs stand apart in the source and are kept apart here.

Molecular target: CB2 receptor (Homo sapiens, UniProt P34972)
Assay: [3H]CP-55,940 radioligand competition binding, CB2
Set-up: host or cells: cell membrane preparations
Conditions: for SI: selectivity index for CB2: Ki(CB1)/Ki(CB2) ratio
[1] = [3H]CP-55,940 displacement, read-out: Ki (CB2)

Chain of CB2 receptor (P34972 whole entry): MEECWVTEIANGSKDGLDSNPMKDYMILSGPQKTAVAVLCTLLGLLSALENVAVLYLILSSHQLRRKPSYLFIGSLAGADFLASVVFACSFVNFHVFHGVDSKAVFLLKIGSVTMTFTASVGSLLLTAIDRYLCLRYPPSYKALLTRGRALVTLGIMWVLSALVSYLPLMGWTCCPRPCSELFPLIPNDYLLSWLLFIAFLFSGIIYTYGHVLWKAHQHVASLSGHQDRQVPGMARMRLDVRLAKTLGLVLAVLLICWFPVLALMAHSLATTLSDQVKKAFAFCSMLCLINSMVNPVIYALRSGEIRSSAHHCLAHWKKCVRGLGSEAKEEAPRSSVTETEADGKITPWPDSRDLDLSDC
Method: Briefly, the bioassay is carried out using the Perkin Elmer 96-well Top Counter. […] The procedure is as follows.
In competition binding experiments, the tested compound dilutions are carried out in duplicate in TME buffer (25 mM Tris, 5 mM MgCl2, 1 mM EDTA) containing 0.1% (w/v) fatty acid free bovine serum albumin (BSA), pH 7.4. […] TME buffer and cell membrane preparations expressing CB receptors (5 μg per well) are added to a final volume of 200 μL. […] After the binding suspensions are incubated at 30° C. for 1 hr, the reaction is terminated by rapid filtration through microfiltration plates (Unifilter GF/B filterplate, PerkinElmer), followed by 5 washes with ice cold TME buffer containing 0.1% BSA on a Packard Filtermate Harvester (PerkinElmer). The plates are then dried overnight and 30 μl MicroScint 0 scintillation cocktail is added to each well of the dried filter plates. The bound radioactivity is then counted using a Perkin Elmer 96-well TopCounter. […] This assay is used for determination of the binding affinity parameters (Ki) of ligand-receptor interactions for the CB receptor.

Compound	SI: selectivity index for CB2	Ki [1] [µM]	Ki [µM]
CCN(CC)c1ccc(CNC23CC4CC(CC(C4)C2)C3)cc1 [B, (3s,5s,7s)-N-(4-(Diethylamino)benzyl)adamantan-1-amine]	130	20	
O=C(Cc1ccccc1)NC(NC(=O)Cc1ccccc1)c1ccccc1 [Compound 2, N,N′-(phenylmethylene)bis(2-phenylacetamide)]		9.93	
O=C(Cc1ccccc1)NC(NC(=O)Cc1ccccc1)c1ccccc1F [Compound 3, N,N′-((2-fluorophenyl)methylene)bis(2-phenylacetamide)]		35.3	
O=C(Cc1ccccc1)NC(NC(=O)Cc1ccccc1)c1cccc(F)c1 [Compound 4, N,N′-((3-fluorophenyl)methylene)bis(2-phenylacetamide)]		12.7	
O=C(Cc1ccccc1)NC(NC(=O)Cc1ccccc1)c1ccc(F)cc1 [Compound 5, N,N′-((4-fluorophenyl)methylene)bis(2-phenylacetamide)]		10.9	
O=C(Cc1ccccc1)NC(NC(=O)Cc1ccccc1)c1ccc(Cl)cc1 [Compound 6, N,N′-((4-chlorophenyl)methylene)bis(2-phenylacetamide)]		3.08	
O=C(Cc1ccccc1)NC(NC(=O)Cc1ccccc1)c1ccc(Br)cc1 [Compound 7, N,N′-((4-bromophenyl)methylene)bis(2-phenylacetamide)]		2.23	
COc1ccc(C(NC(=O)Cc2ccccc2)NC(=O)Cc2ccccc2)cc1 [Compound 10, N,N′-((4-methoxyphenyl)methylene)bis(2-phenylacetamide)]	>26	0.783	
CCOc1ccc(C(NC(=O)Cc2ccccc2)NC(=O)Cc2ccccc2)cc1 [Compound 11, N,N′-((4-ethoxyphenyl)methylene)bis(2-phenylacetamide)]		1.5	
O=C(Cc1ccccc1)NC(NC(=O)Cc1ccccc1)c1ccccc1C(F)(F)F [Compound 13, N,N′-((2-(trifluoromethyl)phenyl)methylene)bis(2-phenylacetamide)]		11.8	
O=C(Cc1ccccc1)NC(NC(=O)Cc1ccccc1)c1ccc(C(F)(F)F)cc1 [Compound 14, N,N′-((4-(trifluoromethyl)phenyl)methylene)bis(2-phenylacetamide)]	>34	0.596	
O=C(Cc1ccccc1)NC(NC(=O)Cc1ccccc1)c1ccc([N+](=O)[O-])cc1 [Compound 15, N,N′-((4-nitrophenyl)methylene)bis(2-phenylacetamide)]		> 20	
CCCCN(CCCC)c1ccc(C(NC(=O)Cc2ccccc2)NC(=O)Cc2ccccc2)cc1 [Compound 18, N,N′-((4-(dibutylamino)phenyl)methylene)bis(2-phenylacetamide)]	>90	0.221	
O=C(Cc1ccccc1)NC(NC(=O)Cc1ccccc1)c1ccc(N2CCCCC2)cc1 [Compound 19, N,N′-((4-(piperidin-1-yl)phenyl)methylene)bis(2-phenylacetamide)]	>34	0.595	
O=C(Cc1ccc(Cl)cc1)NC(NC(=O)Cc1ccc(Cl)cc1)c1ccccc1 [Compound 21, N,N′-(phenylmethylene)bis(2-(4-chlorophenyl)acetamide)]		> 20	
O=C(Cc1ccc(Cl)cc1)NC(NC(=O)Cc1ccc(Cl)cc1)c1ccccc1F [Compound 22, N,N′-((2-fluorophenyl)methylene)bis(2-(4-chlorophenyl)acetamide)]		10.8	
O=C(Cc1ccc(Cl)cc1)NC(NC(=O)Cc1ccc(Cl)cc1)c1ccc(F)cc1 [Compound 23, N,N′-((4-fluorophenyl)methylene)bis(2-(4-chlorophenyl)acetamide)]		> 20	
O=C(Cc1ccc(Cl)cc1)NC(NC(=O)Cc1ccc(Cl)cc1)c1ccc(Cl)cc1 [Compound 24, N,N′-((4-chlorophenyl)methylene)bis(2-(4-chlorophenyl)acetamide)]	>130	0.154	
Cc1ccc(C(NC(=O)Cc2ccc(Cl)cc2)NC(=O)Cc2ccc(Cl)cc2)cc1 [Compound 25, N,N′-(p-tolylmethylene)bis(2-(4-chlorophenyl)acetamide)]	>43	0.462	
COc1ccc(C(NC(=O)Cc2ccc(Cl)cc2)NC(=O)Cc2ccc(Cl)cc2)cc1 [Compound 26, N,N′-((4-methoxyphenyl)methylene)bis(2-(4-chlorophenyl)acetamide)]	>65	0.31	
O=C(Cc1ccc(Cl)cc1)NC(NC(=O)Cc1ccc(Cl)cc1)c1ccccc1C(F)(F)F [Compound 27, N,N′-((2-(trifluoromethyl)phenyl)methylene)bis(2-(4-chlorophenyl)acetamide)]	>127	0.158	
O=C(Cc1ccc(Cl)cc1)NC(NC(=O)Cc1ccc(Cl)cc1)c1ccc(C(F)(F)F)cc1 [Compound 28, N,N′-((4-(trifluoromethyl)phenyl)methylene)bis(2-(4-chlorophenyl)acetamide)]	>198	0.101	
O=C(Cc1ccc(Cl)cc1)NC(NC(=O)Cc1ccc(Cl)cc1)c1ccc([N+](=O)[O-])cc1 [Compound 29, N,N′-((4-nitrophenyl)methylene)bis(2-(4-chlorophenyl)acetamide)]		> 20	

Compound	SI: selectivity index for CB2	Ki [1] [µM]	Ki [µM]
O=C(Cc1ccc(C(F)(F)F)cc1)NC(NC(=O)Cc1ccc(C(F)(F)F)cc1)c1ccccc1 [Compound 30, N,N′-(phenylmethylene)bis(2-(4-(trifluoromethyl)phenyl)acetamide)]		> 20	
O=C(Cc1ccc(C(F)(F)F)cc1)NC(NC(=O)Cc1ccc(C(F)(F)F)cc1)c1ccccc1F [Compound 31, N,N′-((2-fluorophenyl)methylene)bis(2-(4-(trifluoromethyl)phenyl)acetamide)]		> 20	
O=C(Cc1ccc(C(F)(F)F)cc1)NC(NC(=O)Cc1ccc(C(F)(F)F)cc1)c1ccc(F)cc1 [Compound 32, N,N′-((4-fluorophenyl)methylene)bis(2-(4-(trifluoromethyl)phenyl)acetamide)]		> 20	
O=C(Cc1ccc(C(F)(F)F)cc1)NC(NC(=O)Cc1ccc(C(F)(F)F)cc1)c1ccc(Cl)cc1 [Compound 33, N,N′-((4-chlorophenyl)methylene)bis(2-(4-(trifluoromethyl)phenyl)acetamide)]		> 20	
Cc1ccc(C(NC(=O)Cc2ccc(C(F)(F)F)cc2)NC(=O)Cc2ccc(C(F)(F)F)cc2)cc1 [Compound 34, N,N′-(p-tolylmethylene)bis(2-(4-(trifluoromethyl)phenyl)acetamide)]		> 20	
COc1ccc(C(NC(=O)Cc2ccc(C(F)(F)F)cc2)NC(=O)Cc2ccc(C(F)(F)F)cc2)cc1 [Compound 35, N,N′-((4-methoxyphenyl)methylene)bis(2-(4-(trifluoromethyl)phenyl)acetamide)]		> 20	
O=C(Cc1ccc(C(F)(F)F)cc1)NC(NC(=O)Cc1ccc(C(F)(F)F)cc1)c1ccc(C(F)(F)F)cc1 [Compound 36]		> 20	
O=C(Cc1ccccc1)NC(Cc1ccccc1)NC(=O)Cc1ccccc1 [Compound 37, N,N′-(2-phenylethane-1,1-diyl)bis(2-phenylacetamide)]		> 20	
O=C(Cc1ccccc1)NC(/C=C/c1ccccc1)NC(=O)Cc1ccccc1 [Compound 39, (E)-N,N′-(3-phenylprop-2-ene-1,1-diyl)bis(2-phenylacetamide)]		5.68	
CCCCC(NC(=O)Cc1ccccc1)NC(=O)Cc1ccccc1 [Compound 40, N,N′-(pentane-1,1-diyl)bis(2-phenylacetamide)]		36	
CCCCCC(NC(=O)Cc1ccccc1)NC(=O)Cc1ccccc1 [Compound 41, N,N′-(hexane-1,1-diyl)bis(2-phenylacetamide)]		18.2	
CCN(CC)c1ccc(C(NC(=O)c2ccccc2)NC(=O)c2ccccc2)cc1 [Compound 49, N,N′-((4-(Diethylamino)phenyl)methylene)dibenzamide]	>29	0.688	
CCCCC(=O)NC(NC(=O)CCCC)c1ccc(N(CC)CC)cc1 [Compound 52, N,N′-((4-(diethylamino)phenyl)methylene)dipentanamide]	>109	0.182	
CCCCCC(=O)NC(NC(=O)CCCCC)c1ccc(N(CC)CC)cc1 [Compound 53, N,N′-((4-(diethylamino)phenyl)methylene)dihexanamide]	>800	0.025	
CCCCCCCC(=O)NC(NC(=O)CCCCCCC)c1ccc(N(CC)CC)cc1 [Compound 54, N,N′-((4-(diethylamino)phenyl)methylene)dioctanamide]	>136	0.146	
CCN(CC)c1ccc(CN(C23CC4CC(CC(C4)C2)C3)S(=O)(=O)c2ccc(OC)cc2)cc1 [Compound 59, N-(3r)-Adamantan-1-yl)-N-(4-(diethylamino)benzyl)-4-methoxybenzenesulfonamide]		0.137	
CCN(CC)c1ccc(CN(C23CC4CC(CC(C4)C2)C3)S(=O)(=O)c2ccc(C(C)C)cc2)cc1 [Compound 62, N-((3s,5s,7s)-Adamantan-1-yl)-N-(4-(diethylamino)benzyl)-4-isopropylbenzenesulfonamide]			0.457
CCCCCCCC(=O)N(Cc1ccc(N(CC)CC)cc1)C12CC3CC(CC(C3)C1)C2 [Compound 64, N-((3s,5s,7s)-Adamantan-1-yl)-N-(4-(diethylamino)benzyl)octanamide]		0.638	
CCCCCCCN(Cc1ccc(N(CC)CC)cc1)S(=O)(=O)c1cccc(C)c1 [Compound 68, N-(4-(Diethylamino)benzyl)-N-heptyl-3-methylbenzenesulfonamide]		2.3	
CCCCCCCN(Cc1ccc(N(CC)CC)cc1)S(=O)(=O)c1ccc(C(C)C)cc1 [Compound 69, N-(4-(Diethylamino)benzyl)-N-heptyl-4-isopropylbenzenesulfonamide]		13	
CCCCCCCN(Cc1ccc(N(CC)CC)cc1)S(=O)(=O)c1ccc(OC)cc1 [Compound 70, N-(4-(Diethylamino)benzyl)-N-heptyl-4-methoxybenzenesulfonamide]		5.19	
CCCCCCCN(Cc1ccc(N(CC)CC)cc1)S(=O)(=O)c1ccc(OC(C)C)cc1 [Compound 71, N-(4-(Diethylamino)benzyl)-N-heptyl-4-isopropoxybenzenesulfonamide]		> 20	
